The subject of experiment [1] is rat intestinal α-glucosidase. Description: Mode of α-glucosidase inhibition (Lineweaver-Burk). It counts as biochemical. The note with it: for type of inhibition against α-glucosidase: regardless of the type of disaccharide. Here is the method:
The assessment of the α-glucosidase activity was slightly modified according to […] et al. and Gao et al.. […] Enzyme isolation was performed in an ultrasonic cleaner (for 30 sec) in an ice bath, then 30 sec without ultrasonic. […] After that, the solution was centrifuged at 4 °C (3000 rpm, 30 min). 50 μL of diluted V. opulus samples were mixed with 50 μL of enzyme supernatant (diluted 2 times for reaction with maltose). After incubation at 37 °C for 10 min, 50 μL of substrate (0.1 M maltose or 0.5 M sucrose solution prepared in 0.1 M phosphate buffer, pH 6.9) was added and incubated in a 96-well microplate at 37 °C for 20 min for maltose and 60 min for sucrose. The reaction was stopped by adding 150 μL of 2 M Tris-HCl buffer (pH 7.0). The concentration of glucose released from the reaction mixture was determined by the commercial glucose test (BIOMAXIMA SA, Lublin, Poland). […] A double reciprocal graph (1/v versus 1/S, where “v” is the reaction rate and “S” the concentration of the substrate), was plotted. All samples were tested at three different doses using six concentrations of substrate.

Experiment [2] deals with T1, α-amylase from porcine pancreas (Sus scrofa, UniProt P00690).
T1 construct: α-amylase from porcine pancreas type VI-B; purchased Sigma Aldrich (Steinheim, Germany) type VI-B (catalogue number not given); host or cells: porcine pancreas
T1 sequence (P00690 16-511): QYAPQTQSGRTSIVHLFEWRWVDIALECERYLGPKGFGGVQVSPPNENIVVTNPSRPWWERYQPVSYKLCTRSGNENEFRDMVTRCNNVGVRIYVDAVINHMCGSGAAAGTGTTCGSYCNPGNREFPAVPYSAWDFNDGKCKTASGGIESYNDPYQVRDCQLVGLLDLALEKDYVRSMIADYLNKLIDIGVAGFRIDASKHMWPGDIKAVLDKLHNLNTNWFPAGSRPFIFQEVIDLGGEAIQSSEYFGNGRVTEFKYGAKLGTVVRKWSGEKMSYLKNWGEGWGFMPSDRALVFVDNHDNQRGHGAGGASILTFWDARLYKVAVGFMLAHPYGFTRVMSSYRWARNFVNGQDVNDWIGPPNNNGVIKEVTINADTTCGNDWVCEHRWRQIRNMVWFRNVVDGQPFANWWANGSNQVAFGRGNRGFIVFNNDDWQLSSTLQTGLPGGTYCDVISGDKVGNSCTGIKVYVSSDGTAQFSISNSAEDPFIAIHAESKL
Description: Mode of α-amylase inhibition (Lineweaver-Burk). The following applies: for type of inhibition against α-amylase: regardless of the type of starch. It counts as biochemical. The method, then: (§1) The α-amylase inhibition assay was based on a previously-described spectrophotometric method with some modifications. All reagents were prepared with 0.1 M phosphate buffer containing 6 mM CaCl2 (pH 6.9). Briefly, 20 µL of diluted V. opulus samples and 40 µL of potato starch (0.83 g/L) or starch from rice (1 g/L) solution were mixed with 20 µL of α-amylase (0.1 mg/mL for potato starch and 0.2 mg/mL for starch from rice) in a 96-well plate. […] The absorbance was read at 600 nm using a microplate reader (Synergy2, Biotek Instruments Inc., Winooski, VT, USA). […] Each sample was measured in triplicate.
The enzymes activities without and with tested samples were studied using the methods described in Section 2.5 and Section 2.6. A double reciprocal graph (1/v versus 1/S, where “v” is the reaction rate and “S” the concentration of the substrate), was plotted. All samples were tested at three different doses using six concentrations of substrate.

For experiment [3], the target named is rat intestinal α-glucosidase. Description: α-glucosidase inhibition assay (glucose release from disaccharide). The experiment is classed as biochemical. Here is the method:
The assessment of the α-glucosidase activity was slightly modified according to […] et al. and Gao et al.. […] Enzyme isolation was performed in an ultrasonic cleaner (for 30 sec) in an ice bath, then 30 sec without ultrasonic. This step was repeated 12 times. After that, the solution was centrifuged at 4 °C (3000 rpm, 30 min). 50 μL of diluted V. opulus samples were mixed with 50 μL of enzyme supernatant (diluted 2 times for reaction with maltose). After incubation at 37 °C for 10 min, 50 μL of substrate (0.1 M maltose or 0.5 M sucrose solution prepared in 0.1 M phosphate buffer, pH 6.9) was added and incubated in a 96-well microplate at 37 °C for 20 min for maltose and 60 min for sucrose. The reaction was stopped by adding 150 μL of 2 M Tris-HCl buffer (pH 7.0). The concentration of glucose released from the reaction mixture was determined by the commercial glucose test (BIOMAXIMA SA, Lublin, Poland).

For experiment [4], the system named is AGE formation (BSA-glucose model). Description: Protein glycation inhibition assay, BSA-glucose model. The experiment is classed as biochemical, bovine. The note with it: 37 °C, 13 days.
Description: The bovine serum albumin (BSA) and glucose/fructose assay was carried according to the method of Błaszczak et al. [45] with some modifications. We prepared 25 mL of the test solution containing D-glucose or D-fructose (1.0 M), BSA (10 mg/mL) and sodium azide (0.1 mg/mL) in the phosphate buffer (0.1 M, pH 7.4). The test solution (1 mL) was incubated in the dark at 37 °C for 13 days for glucose and for 6 days for fructose with or without 0.5 mL of tested V. opulus samples. […] Next, the formation of AGE was evaluated based on fluorescence intensity at λ = 330 nm (excitation wave) and λ = 460 nm (emission wave). Fluorescence intensity was measured in 96-well plates (black, OptiPlate-96 F, PerkinElmer, UK) in a microplate reader (Synergy2, BioTek Instruments Inc., Winooski, VT, USA).
Experiment [5] has as its system AGE formation (BSA-fructose model). Description: Protein glycation inhibition assay, BSA-fructose model. The experiment is classed as biochemical, bovine. The following applies: 37 °C, 6 days. The method, then: The bovine serum albumin (BSA) and glucose/fructose assay was carried according to the method of Błaszczak et al. with some modifications. We prepared 25 mL of the test solution containing D-glucose or D-fructose (1.0 M), BSA (10 mg/mL) and sodium azide (0.1 mg/mL) in the phosphate buffer (0.1 M, pH 7.4). The test solution (1 mL) was incubated in the dark at 37 °C for 13 days for glucose and for 6 days for fructose with or without 0.5 mL of tested V. opulus samples. […] Next, the formation of AGE was evaluated based on fluorescence intensity at λ = 330 nm (excitation wave) and λ = 460 nm (emission wave). Fluorescence intensity was measured in 96-well plates (black, OptiPlate-96 F, PerkinElmer, UK) in a microplate reader (Synergy2, BioTek Instruments Inc., Winooski, VT, USA).

Experiment [6] concerns the target maltase from rat small intestine. On the set-up: method as in PMID 16787002. The note with it: cited from earlier work.
Experiment [7] addresses α-amylase porcine pancreas. More on the design: method as in PMID 16787002. The following applies: cited from earlier work.
In experiment [8] the target is T2, α-amylase from porcine pancreas type VI-B (Sus scrofa, UniProt P00690).
T2 construct: α-amylase from porcine pancreas type VI-B; purchased Sigma Aldrich (Steinheim, Germany) type VI-B (catalogue number not given); host or cells: porcine pancreas
T2 sequence (P00690 16-511): T1 sequence (P00690 16-511)
Description: α-amylase inhibition assay (starch-iodine, spectrophotometric). The experiment is classed as biochemical. Here is the method:
as §1

Experiment [9] deals with sucrase from rat small intestine. More on the design: method as in PMID 16787002. The following applies: cited from earlier work.
The next experiment deals with T3, α-amylase (Sus scrofa, UniProt P00690).
T3 construct: purchased Sigma Aldrich (Steinheim, Germany) type VI-B (catalogue number not given); host or cells: porcine pancreas
T3 sequence (P00690 16-511): T1 sequence (P00690 16-511)
On the set-up: method as in doi:10.3390/pr8111388. The note with it: cited from earlier work.

Experiment [10] deals with porcine pancreatic α-amylase. The note with it: potato and maize starch; cited from earlier work.

What is called Ki is a measure of affinity in units of concentration, obtained from inhibition or displacement. By IC50 is commonly meant the concentration that inhibits the measured activity by half.

Converted amounts (≈) assume the structure as drawn. “Also recorded” adds a separate entry of the source.

Take `C[C@H]1O[C@H](O[C@H]2[C@H](O)[C@@H](O)[C@@H](O[C@H]3[C@H](O)[C@@H](O)C(O)O[C@@H]3CO)O[C@@H]2CO)[C@H](O)[C@@H](O)[C@@H]1N[C@H]1C=C(CO)[C@@H](O)[C@H](O)[C@H]1O` (some centres unmarked) [Acarbose, acarbose]: the “Inhibition Type” value in experiment [1] (maltose) is “mixed”; in [1] (sucrose), “mixed”; in experiment [2] (potato starch) it was “uncompetitive”; in [2] (rice starch), “uncompetitive”. The Ki entry in [1] (maltose) is “/ 0.021 μg/mL”; in experiment [1] (sucrose) it was “/ 1.52 μg/mL”. In experiment [1], the “type of inhibition against α-glucosidase” value was “mixed type of inhibition (competitive and noncompetitive); also recorded: mixed mode of inhibition”. Further, in [2], the “type of inhibition against α-amylase” value is reported as “uncompetitive; also recorded: uncompetitively”. For the same molecule, the “IC50 for the inhibition of α-glucosidase” value in experiment [3] (substrate maltose) came out at 0.051 ± 0.001a µg/mL; in experiment [3] (substrate sucrose), 1.37 ± 0.04a µg/mL.

As for `Cl.N=C(N)NN` [Aminoguanidine, aminoguanidine hydrochloride], the “IC50 for the inhibition of AGE formation” value was 137.80 ± 3.44a µg/mL in experiment [4] and 106.08 ± 3.17 µg·days/mL in experiment [5].

In the case of `O=C(/C=C/c1ccc(O)c(O)c1)O[C@@H]1C[C@](O)(C(=O)O)C[C@@H](O)[C@H]1O` [Chlorogenic acid], the “Inhibition Type” value in [1] (maltose) was “noncompetitive”; in experiment [1] (sucrose), “noncompetitive”; in [2] (potato starch), “competitive”; in experiment [2] (rice starch) it was “competitive”. Further, the Ki result in experiment [1] (maltose) is “/ 145.41 μg/mL”; in [1] (sucrose), “/ 181.21 μg/mL”; in [2] (potato starch), 3.46 mM; in [2] (rice starch) it was 5.32 mM. Further, the “type of inhibition against α-glucosidase” value in experiment [1] is “noncompetitive-type inhibition”. Moreover, the IC50 against maltase in experiment [6] is 8810 µg/mL (≈ 24.9 mM). Also, in experiment [2], the “type of inhibition against α-amylase” value was “competitive”. Further, the “lower inhibitory activity against α-glucosidase than PEAF” value in experiment [3] (maltose) worked out at 1.7 fold. The “IC50 for the inhibition of α-glucosidase” value is 103.37 ± 5.29bc µg/mL in [3] (substrate maltose) and 99.81 ± 0.75ab µg/mL in experiment [3] (substrate sucrose). Moreover, the “IC50 on α-amylase” value in [7] was 13170 µg/mL (≈ 37.2 mM). In experiment [8] (average of both starches), the “IC50 towards α-amylase higher than IC50 for CE, on average” value amounted to 2.7 fold. Also, the “IC50 towards α-amylase higher than IC50 for PE, on average” value in [8] (average of both starches) amounted to 14 fold. The concentration for half-maximal inhibition (IC50) in experiment [8] (substrate potato starch) is 2.35 mM; in [8] (substrate starch from rice), 5.54 mM. For the same molecule, the IC50 against sucrase in [9] was 500 µg/mL (≈ 1.41 mM). In experiment [5], the “IC50 for the inhibition of AGE formation” value came out at 58.87 ± 0.93c µg/mL. Besides, the “lower inhibitory activity against α-amylase compared to acarbose” value on α-amylase is on record as 5 fold. The “type of inhibitory effect on α-amylase hydrolysis of starch” value in experiment [10] is given as “mixed type inhibitory effect”.

The values above are taken from article PMC8235151, “Glycoside Hydrolases and Non-Enzymatic Glycation Inhibitory Potential of Viburnum opulus L. Fruit—In Vitro Studies” (Antioxidants, 2021).
